Entries after “also recorded” stand apart in the source; their conditions may differ.
Experiments:
HeLa cells [1] = assay: Cell migration assay of HeLa cells on lipid multilayer films made by evaporative edge lithography; assay type: cell-based; details: for collective cell migration compared to control group: lipid encapsulated film; for collective cell migration compared to control group / migration rate of HeLa cells versus lipid thickness: 24 hours; for HeLa cell migration (qualitative effect): drug delivered from encapsulated lipid films; for migration rate of HeLa cells versus lipid thickness: lipid only
Description: Polydimethylsiloxane (PDMS) was cured from the SYLGARD® 184 silicone elastorner kit in a 60° C. oven overnight. PDMS strips of 15 mm long by 1 mm wide were placed between 500-800 μm apart on prepared glass coverslips before addition of lipid mixtures. 1,2-dioleoyl-3-trimethylammonium-propane (chloride salt) (DOTAP) and 1,2-dioleoyl-sn-glycerol-3-phosphoethanolamine-N-(lissamine rhodamine b sulfonyl) (ammonium salt) (DOPE-rhodamine) were purchased from Avanti Polar Lipids. To create lipid only solutions, DOTAP was mixed with 1 molar percent (mol %) DOPE-rhodamine in chloroform and dried overnight in a vacuum pump desiccators at 16 LM 15 Torr 7.4 PSIG to remove solvent. Ethanol (100%) was added to suspend dried lipid powder and 1 μl was deposited in each PDMS channel and the array was dried overnight in a vacuum to remove residual ethanol. A similar procedure was used for docetaxel encapsulated lipid solutions and the drug was dissolved in ethanol prior to adding to the dried lipid powder.
The prepared assays on glass coverslips were placed individually wells of a 6-well plate for cell culture. For experiments, cells were seeded onto the prepared patterned glass coverslips by gently pipetting the cell suspension (2.5×10^5 cells/ml, 1 ml per coverslip) directly over each PDMS channel to allow cells to settle in them. The same method was used to seed other parts of the slide for use as control areas. Cells were allowed to settle for 1-2 hours before the PDMS barriers were removed to promote cell migration. After barrier removal, the coverslips were washed once with HBSS and replaced with fresh growth media. The cells were incubated over the patterned areas for up to 24 hours. Width of each cell strip was measure by hand with Nikon Elements 4.0 analysis software and the average migration rate for each strip was determined with the following equation: Migration Rate (μm/hr)=(WidthT=24 hrs−WidthT=0 hrs/24hrs.
Width is the average width in micrometers (μm) of the cell monolayer measured either at the beginning of the experiment (T=0 hrs) or at the end (T=24 hours).
The images for cell migration were captured on a Nikon Ti Eclipse inverted microscope with 4× or 10× objectives. Images for cell migration were taken after barrier removal and once again 24 hours after incubation period in phase contrast. Fluorescent filters used were B-2E/C and G-2E/C for red and green emitting dyes.
(§1) A student t-test was performed to determine statistical significance between means of each sample (p-value <0.05). Error bars in figures are standard error of the mean for n samples. Characterizing the edge lipid films produced a total of n=20 samples and middle lipid film measurements produced n=10 samples. Cell density experiments were performed in triplicates (n=3). All samples for cell migration were taken in triplicate and replicated three times (n=9).

[2] = cited from earlier work
[3] = cited from earlier work; remark: listed apart in the source
HeLa cells [4] = assay: Cell adhesion experiments on lipid films of different multilayer thickness; assay type: cell-based
Description: Lipids were dissolved in ethanol and added to each channel in increasing amounts from 0.2 ng to 20 μg. Tests for cell attachment were performed by seeding HeLa cells into assay channel with varying amounts of lipid films. Cells were allowed to attach for two hours before washing the channels repeatedly 5 times. Prior to counting, cells were incubated with live-cell fluorescent dye (SYTO9, Invitrogen). The number of cells per square micron area (μm^2) that remained attached was counted manually. Experiments for cell adhesion where performed in three replicates. Values for cell density of each treatment were determined by averaging the number of cells in 5 random 100 μm^2 areas in a single image captured at a 4× magnification.
as §1

Row | Structure (SMILES) | migration rate of the cells, dose dependence (HeLa cells [1]; delivered by encapsulated lipid films, over 24 hours) | collective cell migration compared to control group (HeLa cells [1]; docetaxel to lipid ratio (by mass) 1:2) | collective cell migration compared to control group (HeLa cells [1]; docetaxel to lipid ratio (by mass) 1:4) | collective cell migration compared to control group (HeLa cells [1]; docetaxel to lipid ratio (by mass) 1:10) | HeLa cell migration (qualitative effect) (HeLa cells [1]) | solubility in water [2] | log P [3] | HeLa cell adhesion to lipid films compared to untreated glass (HeLa cells [4]; concentrations higher than 20 μg/ml, 2 hours of incubation) | HeLa cell adhesion to lipid films (HeLa cells [4]; films created from 20 ng (initial solution 20 μg/ml) or lower, 2 hours of incubation) | HeLa cell morphology and viability on lipid multilayers (HeLa cells [4]; lipid multilayers created from 200 ng of lipids or more, compared to thinner multilayers) | migration rate of HeLa cells versus lipid thickness (HeLa cells [1]; channels from lipid solutions of 20 μg/ml or lower) | migration rate of HeLa cells versus lipid thickness (HeLa cells [1]; lipid solutions above 20 μg/ml)
1 | CC(=O)O[C@@]12CO[C@@H]1C[C@H](O)[C@@]1(C)C(=O)[C@H](O)C3=C(C)[C@@H](OC(=O)[C@H](O)[C@@H](NC(=O)OC(C)(C)C)c4ccccc4)C[C@@](O)([C@@H](OC(=O)c4ccccc4)[C@H]21)C3(C)C [docetaxel] | reduced the migration rate of the cells dose-dependently | significantly (p<0.05) reduce collective cell migration | significantly (p<0.05) reduce collective cell migration | significantly (p<0.05) reduce collective cell migration | significantly inhibit cellular migration; also recorded: inhibited | less than 0.025 mg/L | – | – | – | – | – | –
2 | C[C@H]1CCC/C=C/[C@@H]2C[C@H](O)C[C@H]2[C@H](O)/C=C/C(=O)O1 [brefeldin A] | – | – | – | – | inhibited | – | 1.61 | – | – | – | – | –
3 | CCCCCCCC/C=C\CCCCCCCC(=O)OCC(C[N+](C)(C)C)OC(=O)CCCCCCC/C=C\CCCCCCCC.[Cl-] (stereo not shown) [DOTAP, 1,2-dioleoyl-3-trimethylammonium-propane (chloride salt)] | – | – | – | – | – | – | – | adhere significantly less (p<0.05) | adherent | exhibited abnormal morphology and appeared dead | not significantly (p<0.05) affected | significantly hindered

Source: patent US9995732B2, “Evaporative edge lithography of a liposomal drug microarray for cell migration assays” (FLORIDA STATE UNIVERSITY RESEARCH FOUNDATION, priority 2012, dated 2018)
